Experimental data from ChEMBL document CHEMBL5096158, “HIV latency reversal agents: A potential path for functional cure?” (Eur J Med Chem, 2021).

Experiments:
[1] = test system: Human immunodeficiency virus 1; assay: Reversal of HIV-1 latency infected in GFP-fused human J-Lat C11 cells assessed as increase in GFP expression at 100 uM incubated for 72 hrs by flow cytometry; type: functional
[2] = test system: Human immunodeficiency virus 1; assay: Reversal of HIV-1 latency infected in GFP-fused human Jurkat latent cells assessed as increase in GFP expressing cells at 4 uM incubated for 48 hrs by flow cytometry analysis; type: functional
[3] = test system: Human immunodeficiency virus 1; assay: Reversal of HIV-1 latency infected in human J-Lat Tat-GFP Clone A7 cells assessed as increase in GFP expressing cells at 100 nM incubated for 72 hrs by flow cytometry analysis relative to control; type: functional
[4] = biological target: N-lysine methyltransferase SMYD2 (Homo sapiens, UniProt Q9NRG4); assay: Inhibition of SMYD2 (unknown origin)
[5] = test system: Human immunodeficiency virus 1; assay: Reactivation of HIV-1 latency infected in human J-Lat GFP Clone A72 cells assessed as increase in GFP expression at 5 to 10 mM incubated for 18 hrs by flow cytometry; type: functional; conditions: dose 5-10 mM
[6] = test system: Human immunodeficiency virus 1; assay: Reactivation of HIV-1 latency infected in human CD4+ve Th cells assessed as fold increase in GFP expression at 500 nM incubated for 18 hrs by flow cytometry; type: functional
[7] = test system: Human immunodeficiency virus 1; assay: Reversal of HIV-1 latency infected in human U1 cells assessed as fold increase in p24 expression level at 15.6 nM incubated for 48 hrs by ELISA; type: functional
[8] = test system: Human immunodeficiency virus 1; assay: Reversal of HIV-1 latency infected in human ACH-2 cells assessed as fold increase in p24 expression level at 15.6 nM incubated for 48 hrs by ELISA; type: functional, ACH-2 cell line
[9] = test system: Human immunodeficiency virus 1; assay: Reversal of HIV-1 latency infected in human ACH-2 cells assessed as fold increase in p24 expression level at 31.1 nM incubated for 48 hrs by ELISA; type: functional, ACH-2 cell line
[10] = test system: Human immunodeficiency virus 1; assay: Reversal of HIV-1 latency infected in human U1 cells assessed as fold increase in p24 expression level at 31.1 nM incubated for 48 hrs by ELISA; type: functional
[11] = Inhibition of HIV-1 latency in human CD4+ve Th cells infected NL4.3-Luc virus assessed as p24 expression level incubated for 48 hrs by v450 dye based flow cytometry; type: functional, cell-based; conditions: Human immunodeficiency virus 1, CD4+ve Th
[12] = test system: Human immunodeficiency virus 1; assay: Reversal of HIV-1 latency infected in GFP-fused human J-Lat C11 cells assessed as increase in GFP expression at 2 uM incubated for 3 hrs by flow cytometry; type: functional
[13] = test system: Human immunodeficiency virus 1; assay: Reversal of HIV-1 latency infected in GFP-fused human J-Lat C11 cells assessed as increase in GFP expression at 10 uM incubated for 72 hrs by flow cytometry; type: functional
[14] = test system: Human immunodeficiency virus 1; assay: Reversal of HIV-1 latency infected in GFP-fused human J-Lat 10.6 cells increase in GFP expressing cells by FACS analysis; type: functional, organism-based; conditions: Human immunodeficiency virus 1, J-Lat 10.6
[15] = test system: Human immunodeficiency virus 1; assay: Reactivation of HIV-1 latency in GFP-fused human primary CD4+ve Th cells infected with HIV-1NL4-3 luciferase virus assessed as fold increase in GFP expression incubated for 48 hrs by luciferase luminescence analysis; type: functional
[16] = test system: Human immunodeficiency virus 1; assay: Reactivation of HIV-1 latency infected in human Th17 cells assessed as increase in HIV production by measuring phosphorylated S175 CDK9 levels at 10 nM incubated for 96 hrs by flow cytometry; type: functional
[17] = test system: Human immunodeficiency virus 1; assay: Reactivation of HIV-1 latency infected in human Th17 cells assessed as increase in HIV production by measuring phosphorylated S175 CDK9 levels at 1 uM incubated for 96 hrs by flow cytometry; type: functional
Histone deacetylase 4 = Histone deacetylase 4 (Homo sapiens, UniProt P56524); assay: Inhibition of recombinant human HDAC4 expressed in baculovirus expression system using KI-104 as substrate incubated for 3 hrs by fluorescence-based assay
[18] = biological target: T1, Protein deacetylase HDAC6 (Homo sapiens, UniProt Q9UBN7); assay: Inhibition of recombinant human HDAC6 expressed in baculovirus expression system using KI-104 as substrate incubated for 3 hrs by fluorescence-based assay
T1 sequence (Q9UBN7 whole entry): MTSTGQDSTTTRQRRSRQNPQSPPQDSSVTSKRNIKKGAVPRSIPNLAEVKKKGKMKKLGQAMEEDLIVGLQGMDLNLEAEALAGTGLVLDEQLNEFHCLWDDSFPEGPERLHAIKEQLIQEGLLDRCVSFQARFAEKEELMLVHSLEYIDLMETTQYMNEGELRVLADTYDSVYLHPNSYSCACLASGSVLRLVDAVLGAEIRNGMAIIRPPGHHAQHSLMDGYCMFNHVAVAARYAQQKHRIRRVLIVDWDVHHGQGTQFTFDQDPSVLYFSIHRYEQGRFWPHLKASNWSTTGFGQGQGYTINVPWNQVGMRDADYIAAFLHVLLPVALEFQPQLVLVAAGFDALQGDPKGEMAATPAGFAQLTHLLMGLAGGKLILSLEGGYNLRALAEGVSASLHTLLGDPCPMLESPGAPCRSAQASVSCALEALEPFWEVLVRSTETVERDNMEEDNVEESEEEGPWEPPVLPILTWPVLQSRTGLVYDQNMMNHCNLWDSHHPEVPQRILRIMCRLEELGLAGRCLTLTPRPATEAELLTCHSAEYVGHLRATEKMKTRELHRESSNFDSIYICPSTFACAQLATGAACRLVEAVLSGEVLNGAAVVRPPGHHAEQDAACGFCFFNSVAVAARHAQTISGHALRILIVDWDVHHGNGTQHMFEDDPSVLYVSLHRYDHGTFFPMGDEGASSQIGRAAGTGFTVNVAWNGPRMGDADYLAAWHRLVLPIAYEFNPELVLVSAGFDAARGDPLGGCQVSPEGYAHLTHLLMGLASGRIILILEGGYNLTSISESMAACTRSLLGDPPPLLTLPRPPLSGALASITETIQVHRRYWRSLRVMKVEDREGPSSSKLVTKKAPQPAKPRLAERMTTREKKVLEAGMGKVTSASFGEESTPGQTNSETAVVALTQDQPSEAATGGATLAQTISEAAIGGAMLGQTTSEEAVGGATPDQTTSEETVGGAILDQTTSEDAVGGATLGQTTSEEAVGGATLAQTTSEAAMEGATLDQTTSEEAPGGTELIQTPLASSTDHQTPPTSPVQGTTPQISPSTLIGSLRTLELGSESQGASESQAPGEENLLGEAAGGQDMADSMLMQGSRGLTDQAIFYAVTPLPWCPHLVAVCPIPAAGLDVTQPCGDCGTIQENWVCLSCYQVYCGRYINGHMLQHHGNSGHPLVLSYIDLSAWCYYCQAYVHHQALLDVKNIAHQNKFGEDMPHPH

[19] = Inhibition of HIV-1 latency infected in human ACH-2 cells assessed as fold increase in HIV production by measuring p24 level incubated for 48 hrs in presence of BIX01294 by ELISA; type: functional, Human immunodeficiency virus 1, ACH-2 cell line
[20] = test system: Human immunodeficiency virus 1; assay: Reactivation of HIV-1 latency infected in GFP-fused human J-Lat 10.6 cells assessed as increase in GFP expression incubated for 48 hrs by flow cytometry; type: functional, organism-based; conditions: Human immunodeficiency virus 1, J-Lat 10.6, 48 h
[21] = test system: Human immunodeficiency virus 1; assay: Reversal of HIV-1 latency infected in GFP-fused human J-Lat C11 cells assessed as increase in GFP expression at 4 uM incubated for 3 hrs by flow cytometry; type: functional
[22] = test system: Human immunodeficiency virus 1; assay: Reversal of HIV-1 latency infected in GFP-fused human J-Lat A2 cells assessed as increase in GFP expression at 4 uM incubated for 3 hrs by flow cytometry; type: functional
[23] = test system: Human immunodeficiency virus 1; assay: Reactivation of HIV-1 latency in human ACH-2 cells assessed as fold increase in p24 expression at 1 uM incubated for 24 hrs by western blot analysis; type: functional, ACH-2 cell line
[24] = test system: Human immunodeficiency virus 1; assay: Reactivation of HIV-1 latency in human U1 cells assessed as fold increase in p24 expression at 1 uM incubated for 24 hrs by western blot analysis; type: functional
[25] = test system: Human immunodeficiency virus 1; assay: Reversal of HIV-1 latency infected in human J-Lat Tat-GFP Clone A7 cells assessed as increase in GFP expressing cells at 200 nM incubated for 72 hrs by flow cytometry analysis relative to control; type: functional
[26] = test system: Human immunodeficiency virus 1; assay: Reversal of HIV-1 latency in human ACH-2 cells assessed as increase in GFP positive cells incubated for 24 hrs by flow cytometry; type: functional, organism-based, ACH-2 cell line; conditions: Human immunodeficiency virus 1, ACH-2, 24 h
[27] = test system: Human immunodeficiency virus 1; assay: Reversal of HIV-1 latency infected in GFP-fused human A10.6 cells assessed as increase in GFP expressing cells at 0.25 uM incubated for 24 hrs by FACS analysis; type: functional
[28] = test system: Human immunodeficiency virus 1; assay: Reversal of HIV-1 latency infected in GFP-fused human A10.6 cells assessed as increase in GFP expressing cells at 1 uM incubated for 24 hrs by FACS analysis; type: functional, A10.6 cell
[29] = test system: Human immunodeficiency virus 1; assay: Reversal of HIV-1 latency infected in GFP-fused human A10.6 cells assessed as fold increase in acetylation of H4 within Nuc-1 at 0.5 uM incubated for 4 hrs by ChIP assay; type: functional, A10.6 cell
[30] = test system: Human immunodeficiency virus 1; assay: Reversal of HIV-1 latency infected in GFP-fused human A10.6 cells assessed as fold increase in acetylation of H3 within Nuc-1 at 0.5 uM incubated for 4 hrs by ChIP assay; type: functional, A10.6 cell
[31] = Inhibition of HIV-1 latency infected in human ACH-2 cells assessed as fold increase in HIV production by measuring p24 level incubated for 48 hrs in presence of vorinostat by ELISA; type: functional, Human immunodeficiency virus 1, ACH-2 cell line
[32] = Inhibition of HIV-1 latency infected in human ACH-2 cells assessed as fold increase in HIV production by measuring p24 level incubated for 48 hrs in presence of 5-azacytidine by ELISA; type: functional, Human immunodeficiency virus 1, ACH-2 cell line

Chain of N-lysine methyltransferase SMYD2 (Q9NRG4 whole entry): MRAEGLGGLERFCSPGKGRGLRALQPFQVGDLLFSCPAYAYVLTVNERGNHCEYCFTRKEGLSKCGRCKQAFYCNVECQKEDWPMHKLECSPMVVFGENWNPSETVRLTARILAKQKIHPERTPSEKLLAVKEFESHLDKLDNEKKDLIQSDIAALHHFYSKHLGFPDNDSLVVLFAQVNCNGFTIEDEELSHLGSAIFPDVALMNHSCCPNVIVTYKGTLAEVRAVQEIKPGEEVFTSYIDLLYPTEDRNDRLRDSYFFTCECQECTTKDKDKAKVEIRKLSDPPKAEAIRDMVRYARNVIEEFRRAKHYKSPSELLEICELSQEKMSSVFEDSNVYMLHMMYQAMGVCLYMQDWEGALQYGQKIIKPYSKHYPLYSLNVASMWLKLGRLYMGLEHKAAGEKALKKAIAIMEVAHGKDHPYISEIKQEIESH
Chain of Histone deacetylase 4 (P56524 whole entry): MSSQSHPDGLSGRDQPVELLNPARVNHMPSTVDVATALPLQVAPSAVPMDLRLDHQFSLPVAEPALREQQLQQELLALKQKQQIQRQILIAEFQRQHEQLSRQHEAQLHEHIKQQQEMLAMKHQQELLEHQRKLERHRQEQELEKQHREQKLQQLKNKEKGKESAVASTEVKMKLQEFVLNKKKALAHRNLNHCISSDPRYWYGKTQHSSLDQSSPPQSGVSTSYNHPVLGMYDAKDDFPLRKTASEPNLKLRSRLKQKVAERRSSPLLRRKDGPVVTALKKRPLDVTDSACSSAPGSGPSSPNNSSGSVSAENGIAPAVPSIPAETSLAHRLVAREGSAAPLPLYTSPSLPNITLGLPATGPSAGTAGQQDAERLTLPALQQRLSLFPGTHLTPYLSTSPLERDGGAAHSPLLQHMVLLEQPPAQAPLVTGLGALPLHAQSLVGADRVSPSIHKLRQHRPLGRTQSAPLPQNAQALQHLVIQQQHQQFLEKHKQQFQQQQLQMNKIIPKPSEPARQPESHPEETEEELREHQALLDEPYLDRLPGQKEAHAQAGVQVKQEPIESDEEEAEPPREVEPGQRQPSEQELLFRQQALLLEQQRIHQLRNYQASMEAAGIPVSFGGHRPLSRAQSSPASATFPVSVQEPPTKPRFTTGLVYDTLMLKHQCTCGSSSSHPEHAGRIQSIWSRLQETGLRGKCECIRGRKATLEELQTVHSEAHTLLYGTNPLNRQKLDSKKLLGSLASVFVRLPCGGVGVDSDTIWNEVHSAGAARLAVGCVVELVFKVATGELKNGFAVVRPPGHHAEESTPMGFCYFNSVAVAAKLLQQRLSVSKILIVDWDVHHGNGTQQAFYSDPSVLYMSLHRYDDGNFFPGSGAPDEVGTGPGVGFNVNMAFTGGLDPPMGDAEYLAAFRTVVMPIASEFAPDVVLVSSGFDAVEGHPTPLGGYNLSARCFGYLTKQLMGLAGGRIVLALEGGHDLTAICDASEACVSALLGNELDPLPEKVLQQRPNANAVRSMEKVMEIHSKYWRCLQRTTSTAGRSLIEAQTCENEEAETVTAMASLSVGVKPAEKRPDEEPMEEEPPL

COc1cc(OC)c2c(=O)[nH]c(-c3cc(C)c(OCCO)c(C)c3)nc2c1 [APABETALONE]
Activity [1]: 75%

CC(=O)SCCCCC[C@H](NC(=O)C1CCC(=O)N1)C(=O)Nc1ccccc1 (stereo not given in full)
Activity [2]: 52%

CC(/C=C/C(=O)NO)=C\[C@@H](C)C(=O)c1ccc(N(C)C)cc1 [TRICHOSTATIN]
Activity [3]: 21.3%

N#Cc1cc(C(=O)NCCCN2CCCC2)cc(-c2ccccc2N2CCN(CCc3c[nH]c4ccccc34)CC2)c1
IC50 [4]: 27 nM
Activity [5]: 30%
fold change (FC) [6]: 4

Cc1[nH]c2ccccc2c1CCNCc1ccc(/C=C/C(=O)NO)cc1 [PANOBINOSTAT]
fold change (FC) [7]: 12.8
fold change (FC) [8]: 27.7
fold change (FC) [9]: 51.8
fold change (FC) [10]: 19.9
EC50 [11]: 10 nM

O=C(CCCCCCC(=O)Nc1ccccc1)NO [VORINOSTAT]
Activity [12]: 3.2%

COc1ccccc1S(=O)(=O)Nc1ccc2c(c1)CN(C)C(=O)N2
Activity [13]: 89%

O=C(/C=C/c1ccc(NC(=O)C(Cc2ccccc2)c2ccccc2)cn1)NO (stereo not given)
EC50 [14]: 350 nM
fold change (FC) [15]: 6.4

COc1cc2c(NC3CCN(C(C)C)CC3)nc(C3CCCCC3)nc2cc1OCCCN1CCCC1
Activity [16]: 22%
Activity [17]: 35%

O=C(NCCCN1CCCC1)c1cncc(-c2ccccc2N2CCN(CCc3c[nH]c4ccccc34)CC2)c1
Activity [5]: 30%

O=C(/C=C/c1cccc(S(=O)(=O)Nc2ccccc2)c1)NO [BELINOSTAT]
EC50 (Histone deacetylase 4): 115 nM
EC50 [18]: 82 nM

Nc1ncn([C@@H]2O[C@H](CO)[C@@H](O)[C@H]2O)c(=O)n1 [AZACITIDINE]
fold change (FC) [19]: 47

CC(C)=CC(=O)O[C@H]1C(C)=C[C@]23C(=O)[C@H](C=C(CO)[C@@H](O)[C@]12O)C1C(C[C@H]3C)C1(C)C (stereo not given in full)
EC50 [20]: 58 nM

CCCc1cc(C)[nH]c(=O)c1CNC(=O)c1cc(-c2ccnc(N3CCN(C)CC3)c2)cc2c1cnn2C(C)C
Activity [16]: 20%
Activity [17]: 35%

Nc1ccc(F)cc1NC(=O)c1ccc(CNC(=O)/C=C/c2cccnc2)cc1
Activity [21]: 82.6%
Activity [22]: 80.6%

O=C(CCCCSc1nc(-c2ccc(-c3ccccc3)cc2)cc(=O)[nH]1)NO
EC50 [14]: 350 nM
fold change (FC) [15]: 4.3

CC[C@@H]1C(=O)N(C)c2cnc(Nc3ccc(C(=O)NC4CCN(C)CC4)cc3OC)nc2N1C1CCCC1 [BI-2536]
fold change (FC) [23]: 261
fold change (FC) [24]: 177

CN(C)c1ccc(C(=O)NCCCCCCC(=O)NO)cc1
Activity [25]: 25.2%

CC(C)[C@H]1C(=O)N[C@H](CO)Cc2c[nH]c3cccc(c23)N1C [INDOLACTUM]
EC50 [26]: 47 nM

CCC(=O)CCCCC[C@@H]1NC(=O)[C@H]2CCCCN2C(=O)[C@H]([C@@H](C)CC)NC(=O)[C@H](Cc2cc3ccccc3n2OC)NC1=O
Activity [27]: 7.5%
Activity [28]: 24.9%
fold change (FC) [29]: 3.15
fold change (FC) [30]: 1.34

COc1cc2nc(N3CCCN(C)CC3)nc(NC3CCN(Cc4ccccc4)CC3)c2cc1OC
fold change (FC) [31]: 47
fold change (FC) [32]: 47

CCN(c1cc(-c2ccc(CN3CCOCC3)cc2)cc(C(=O)NCc2c(C)cc(C)[nH]c2=O)c1C)C1CCOCC1 [TAZEMETOSTAT]
Activity [16]: 25%
Activity [17]: 35%
